The test system of assay [1] is sugarcane choplets. Nature of the assay: Soil outcomes of unembedded and embedded (F4 paper tube artificial seed) choplets incubated in various media. The assay is classed as in vivo. To be noted: 21 hr in bathing solution, MetroMix soil. Here is the method: This example describes the soil growth advantage conferred by the enclosure or encapsulation of sugarcane choplets in paper tubes with Parafilm™ covers at bottom and top. The choplets were from plantlets produced by a standard plantlet production process or from a hardening treatment (e.g. high CO2) in the temporary immersion Adaptis™ bioreactors. The choplets were incubated in various media. The media were sterile water; LPM; BAP=[…] prepared by solubilizing solid in dimethylsulfoxide to make 1 mg/mL stock then diluted stock solution in water (50 uL to 50 mL final volume) to prepare 1 mg/L working solution; GA3=giberellin 3 prepared by diluting commercial stock solution (1 mg/mL) in water to form a 1 mg/L working solution. The choplets were segregated into 4 groups of at least 50 choplets. Each group of choplets was weighed on a petri dish before addition of the 7 mL of bathing solution: water; LPM; BAP; and GA3. Each dish was covered and the edge was sealed with 3M Micropore™ tape. The petri dishes were secured to a nutator inside a walk-in growth chamber for 21 hr. For each choplet group, either ten (10) or twenty (20) F4 paper seed structures containing MetroMix™ soil and 200 uL water were assembled with triblock top and bottom lids. The structures were transplanted in a flat containing water-saturated MetroMix™ soil such that the top of the seed design is flush with the top of the soil surface. Encapsulating the choplet in an artificial seed provided improvement in soil survival for all media incubation groups except GA3.

The test system of assay [2] is sugarcane choplets. Briefly: Survival in synthetic soil of choplets from hardened plantlets after one-day immersion in water or hormone media. To be noted: 1-day choplet treatment, 40 planted; for % surviving: day 10 in soil; for alive @ day 10: soil, artificial growth chamber. Format: in vivo. The procedure:
This example describes choplet growth outcomes in soil (survival; morphology) when the plantlets were hardened by various treatments such as nutrient deprivation or osmoticum exposure. The hardening protocols for the plantlets were gradual (multi-day) acclimation of the tissue to decreasing sucrose and/or to increasing polyethylene glycol 6000 (PEG-6000) in LPM. The hardening treatment was evaluated at two stages: the growth of treated plantlets transplanted to synthetic soil; and the survival of choplets from plantlets in a controlled environment.
In another study, three hardening treatments were evaluated but group C hardening treatment was modified: Group C plantlets were grown in LPM for 7 days followed by transfer every two days to a medium containing higher PEG-6000 levels until the medium content had 3% sucrose and 0.2% PEG-6000. At the end of growth in tissue culture (17 days), the plantlets were transplanted to soil.
The second test of these treated plantlets was to produce choplets and evaluate the choplets' success when transplanted to synthetic soil (Table 4). Choplets were produced from sugarcane plantlets followed by a one-day immersion in a media of water, a known plant media, or a known plant media or water containing a growth hormone, such as (6-benzylaminopurine (BAP) or gibberellins 3 (GA3)). […] Choplet preparation may comprise plantlet hardening treatment and/or media treatment after formation of a choplet.

Setting [3] is: choplets in F4 paper tube artificial seeds.
Where [4] appears, read: hardening Group B (lowered sucrose).

Turning to `c1ccc(CNc2ncnc3nc[nH]c23)cc1` [BAP, 6-benzylaminopurine], in assay [1] (setting [3]), the “Surviving on day 6” value amounted to 20, the “Surviving on day 17 (% surviving)” value was found to be 55% and the “Surviving on day 17 (number)” value is 11. In assay [1] (unembedded choplets), the “Surviving on day 6” value is recorded as 6, the “Surviving on day 17 (% surviving)” value is 7% and the “Surviving on day 17 (number)” value came out at 1. Further, in assay [2] (hardening Group A (LPM)), the “% surviving” value is reported as 18% and the “alive @ day 10” value is 7. Further, in assay [2] (setting [4]), the “% surviving” value is on record as 28% and the “alive @ day 10” value was 11. In assay [2] (hardening Group C (PEG-6000)), the “% surviving” value is on record as 25% and the “alive @ day 10” value is recorded as 10.
Regarding `C=C1C[C@]23C[C@@]1(O)CC[C@H]2[C@@]12C=C[C@H](O)[C@@](C)(C(=O)O1)[C@H]2[C@@H]3C(=O)O` [GA3, gibberellins 3], in assay [1] (setting [3]), the “Surviving on day 6” value came to 20, the “Surviving on day 17 (% surviving)” value amounted to 30% and the “Surviving on day 17 (number)” value is 6. Besides, in assay [1] (unembedded choplets), the “Surviving on day 6” value was 9, the “Surviving on day 17 (% surviving)” value is listed as 29% and the “Surviving on day 17 (number)” value is recorded as 4. Further, in assay [2] (hardening Group A (LPM)), the “% surviving” value came out at 10% and the “alive @ day 10” value is reported as 4. In assay [2] (setting [4]), the “% surviving” value amounted to 25% and the “alive @ day 10” value is on record as 10. For the same compound, in assay [2] (hardening Group C (PEG-6000)), the “% surviving” value worked out at 38% and the “alive @ day 10” value is 15.

The values above are taken from US20180177147A1, “METHODS AND COMPOSITIONS FOR CULTIVATING PLANTS AND ARTIFICIAL PLANT SEEDS” (E I DU PONT DE NEMOURS AND COMPANY, priority 2014, published 2018).
